Literature values as cited in US20100112053A1, “GASTRIC RETENTION-TYPE SUSTAINED-RELEASE LEVODOPA PREPARATION” (Kissei Pharmaceutical Co., Ltd., priority 2007, published 2010).
Like-named read-outs stand apart in the source and are kept apart here.

[1] = under a weakly acidic to basic condition

Solubility [1]	Solubility (under an acidic condition)	Structure (SMILES)
low	high	C[C@@](Cc1ccc(O)c(O)c1)(NN)C(=O)O [carbidopa]
low	high	N[C@@H](Cc1ccc(O)c(O)c1)C(=O)O [levodopa]
